The text below walks through data of patent US7595300B2, “7-quinolyl ketolide antibacterial agents” (priority 2005, dated 2009).

Series [1] relates to Haemophilus influenzae. Briefly: MIC, NCCLS broth microdilution, respiratory pathogens. The settings on record: H. influenzae. Format: cell-based. The procedure: (§1) Minimum inhibitory concentrations (“MICs”) were determined by the NCCLS broth microdilution procedure for susceptibility testing for bacteria that grow aerobically (National Committee for Clinical Laboratory Standards, 1997. Methods for dilution antimicrobial susceptibility tests for bacteria that grow aerobically, 4th ed. Approved standard. NCCLS Document M7-A4. National Committee for Clinical Laboratory Standards, Villanova, Pa.). Stock solutions were prepared on the day of the test and appropriate aliquots were added to cation adjusted Mueller-Hinton broth (CAMHB, DIFCO) or Haemophilus test media. Two-fold serial dilutions were prepared and added to wells in microtiter plates. Final test concentrations ranged from 8 to 0.004 ug/ml. Broth cultures of bacteria inoculated from growth on overnight plates for all test bacteria except Streptococcus pneumoniae and Haemophilus influenzae were incubated at 35° C. and then adjusted to the Kirby Bauer standard and diluted in CAMHB to achieve a final inoculum concentration of approximately 5×10^5 CFU/ml. Inocula for S. pneumoniae and H. influenzae were prepared by directly suspending colonies from an overnight plate, adjusting the turbidity and diluting as above. S. pneumoniae media was supplemented with 3% lysed horse blood. All plates were incubated in ambient air at 35° C. for 20-24 h for S. pneumoniae and Haemophilus influenzae and 16-20 h for all other bacteria.
In general terms: In broth dilution the organism is exposed to a series of concentrations in liquid medium.

Series [2] deals with M. catarrhalis. Described as above. The following applies: Moraxella catarrhalis. It counts as cell-based. The procedure:
as §1

For series [3], the system named is S. pyogenes. Described as above. It counts as cell-based. The settings on record: Streptococcus pyogenes. The procedure: as §1
Series [4] has as its system Streptococcus pneumoniae. The series is described as above. Format: cell-based. The settings on record: S. pneumoniae. The procedure: as §1
The subject of series [5] is Streptococcus pneumoniae ATCC 6303. In words: rat lower respiratory tract infection (lung pneumonia) model. The following applies: for Log CFU/g (avg, n = 8): rat lungs, 12 hours after the last dose. It counts as in vivo. As for the experimental part: The in vivo efficacy of compounds (II) and (III) were evaluated in a rat lower respiratory tract infection model. Groups of 8 rats were infected intratracheally with 0.5 mL containing 10^6 CFUs of Streptococcus pneumoniae ATCC 6303 in 5% hog gastric mucin. Compounds dissolved in ethanol were administered by oral gavage daily over 3 days starting 18 hours post-inoculation. Lungs were aseptically removed from survivors 12 hours after the last dose and examined for visible signs of infection, then homogenized in sterile PBS and plated for determination of CFUs by log plating on Columbia agar-nalidixic acid plates.

The test system of series [6] is anesthetized rats. Briefly: Cardiovascular safety, QT interval in anesthetized rats, i.v. bolus. Format: in vivo, rat. The settings on record: for QT prolongation (% above vehicle): anesthetized rat, incremental i.v. bolus doses 0.47 to 15 mg/kg. The procedure:
(§2) Total doses of drug (0.47, 0.94, 1.88, 3.75, 7.5, and 15 mg/kg) or equivalent volumes of vehicle were administered incrementally as an i.v. bolus to groups of 6 anesthetized rats or guinea pigs at 0, 15, 30, 45, 60, and 75 minutes. Hemodynamic parameters including mean arterial pressure (MAP) and heart rate (HR), and ECG parameters (QT and PR intervals and QRS duration) were recorded. For the rat, injection of vehicle gave a 16% increase in QT interval over baseline. For the guinea pig, injection of vehicle gave a 3% increase in QT interval over baseline.

Series [7] concerns anesthetized guinea pigs. In words: Cardiovascular safety, QTc interval in anesthetized guinea pigs, i.v. bolus. The settings on record: for QTc prolongation (% above vehicle): anesthetized guinea pig, incremental i.v. bolus doses 0.47 to 15 mg/kg. It counts as in vivo, guinea pig. As for the experimental part:
as §2

Series [8] relates to male beagle dogs. Briefly: Cardiovascular safety in telemetered dogs, intravenous infusion. It counts as in vivo, dog. The text has this: Four male beagle dogs, obtained from Marshall Farms USA, Inc. (North Rose, N.Y.), were surgically instrumented with telemetry transducers (Data Sciences International, type RL11M2-D70-PCT) to assess arterial blood pressure (ABP) and lead II electrocardiogram (ECG) parameters.
The dosing route was an intravenous infusion jugular vein access). The infusion was accomplished using a CADD Prizm® ambulatory infusion pump attached to a jacket worn by the dog. The dose duration for the intravenous infusion was 30 min for all doses administered, except the last dose (30 mg/kg) where the infusion period was extended to 45 min to accommodate the larger dose volume required for this dose. The vehicle dose and diluent for the test article was 0.05-M sodium citrate in sterile water for injection.
There was one treatment group of four non-naïve dogs and the study was comprised of both pharmacokinetic and telemetry phases, as summarized in the dose administration table for compound (III) (Table 16) below. At least one week was given between dosings to allow clearance of the drug.
For the telemetry phase of the study, collection of hemodynamic and lead II ECG data commenced approximately 30 min prior to dosing and ended approximately 6 h post-dose. Systolic blood pressure (SBP), diastolic blood pressure (DBP), HR, and lead II ECG variables (PR interval, QRS duration, RR interval, and QT interval) were acquired continuously from each animal during each dose day recording session. The QT interval was corrected for variations in HR using the Fridericia's QTc interval (QTcF).
Data acquired following treatment with vehicle or compound (III) were extracted at −10, −5, 0, 10, 20, 30, 35, 45, 60, 90, 150, 270, and 390 min relative to the start dose time. For all blood pressure and ECG parameters, data following treatment with compound (III) were compared to the time-matched vehicle dose data. Statistical comparisons were made using a one-way ANOVA for repeated measures, followed by the Dunnett's post-hoc test when statistical significance was detected with the ANOVA. Changes were considered statistically significant when p<0.05.
A complete visual scan of the ECG waveforms from the vehicle, 11 mg/kg dose, and 15 mg/kg dose of compound (III) was conducted. All waveforms were examined for gross changes in waveform morphology and arrhythmogenesis.

The test system of series [9] is human hepG2 hepatocytes. In words: In vitro hepatotoxicity, resazurin and Nile Red staining. It counts as cell-based. The following applies: 100 μM. As for the experimental part: In one experiment, hepatotoxicity was estimated by overnight incubation of compounds at 3, 10, 30, 100, or 300 μM with cultured rat or human hepG2 hepatocytes, followed by staining of the cells with resazurin to measure viability or with Nile Red to measure steatosis. The minimal drug concentration at which changes in dye binding were observed was noted as the minimal effective concentration. The compound of formula (VIII) wherein Z=3-quinolyl affected […] and steatosis in human HepG2 hepatocytes at 30 μM.
(Alamar Blue is a resazurin reagent that responds to reducing activity.)

A short description of series [10]: Pharmacokinetics in the mouse, plasma and lung tissue. It counts as in vivo. The following applies: oral gavage 10 mg/kg; for Lung AUC / Lung Cmax: mouse lung tissue. As for the experimental part:
The pharmacokinetics of compounds of formula (VIII) and compounds of formula (II) and (III) were measured in the mouse. Compounds were administered either intravenously (i.v.) at 1 mg/kg, or per oral gavage (p.o.) at 10 mg/kg. Plasma samples were taken and analyzed by LC/MS-MS. For lung tissue pharmacokinetics, lungs were removed and homogenized, followed by analyzis by LC/MS-MS.

The test system of series [11] is dog. Briefly: Safety of intravenous dosing in dog models. The settings on record: intravenous 9 mg/kg.
The mark [12] stands for this setting: genotype sensitive, read-out: MIC50.
Where [13] appears, read: genotype sensitive, read-out: MIC90.

Structures are written as SMILES. Converted amounts (≈) assume the structure as drawn. Read-outs that look alike come from different tables or passages of the source.

For the compound `CC1CC(N(C)C)C(O)C(O[C@@H]2[C@@H](C)C(=O)[C@@H](C)C(=O)O[C@H](CCF)[C@@]3(C)OC(=O)N[C@@H]3[C@@H](C)C(=O)[C@H](C)C[C@@]2(C)OC/C=C/c2ccc3cccnc3c2)O1` (stereo partly shown) [Compound (II), 6-O-(1-(7-quinolyl)-3-propenyl)-11-amino-11-deoxy-3-(descladinosyl)-3-oxo-15-fluoroerythromycin A-11,12-cyclic carbamate], the MIC50 was greater than 8 µg/mL in series [1] (resistant); 2 µg/mL (≈ 2.55 µM) in [1] (sensitive); 0.12 µg/mL (≈ 0.153 µM) in series [2]; 0.12 µg/mL (≈ 0.153 µM) in series [3] (genotype ermB); 0.12 µg/mL (≈ 0.153 µM) in series [3] (genotype mef, read-out: MIC50); 0.03 µg/mL (≈ 0.0383 µM) in series [3] (setting [12]). Besides, the MIC50 in series [4] (20 h, genotype ermB + mef) is 1 µg/mL; in series [4] (genotype ermB), 0.12 µg/mL (≈ 0.153 µM); in series [4] (genotype mef, read-out: MIC50), 0.25 µg/mL (≈ 0.319 µM); in series [4] (setting [12]), 0.03 µg/mL (≈ 0.0383 µM). Further, the MIC90 in [1] (resistant) is greater than 8 µg/mL; in series [1] (sensitive), 4 µg/mL (≈ 5.1 µM); in series [2] it was 0.12 µg/mL (≈ 0.153 µM); in series [3] (genotype ermB), 1 µg/mL (≈ 1.28 µM); in series [3] (genotype mef, read-out: MIC90), 0.25 µg/mL (≈ 0.319 µM); in [3] (setting [13]), 0.03 µg/mL (≈ 0.0383 µM). In addition, the MIC90 worked out at 0.12 µg/mL (≈ 0.153 µM) in series [4] (genotype ermB); 2 µg/mL in series [4] (genotype ermB + mef); 0.25 µg/mL (≈ 0.319 µM) in series [4] (genotype mef, read-out: MIC90); 0.03 µg/mL (≈ 0.0383 µM) in [4] (setting [13]). Moreover, the “Log CFU/g (avg, n = 8)” value in series [5] (0.5 mg/kg oral gavage daily over 3 days) was 4.8 Log CFU/g; in series [5] (2.5 mg/kg oral gavage daily over 3 days), 4.3 Log CFU/g. Besides, the “% survivors” value in [5] (rat, 0.5 mg/kg oral gavage daily over 3 days) came out at 78%; in series [5] (rat, 2.5 mg/kg oral gavage daily over 3 days) it was 88%. For the same compound, the “reducing the bacterial load in the rat lungs and increasing survival relative to control animals” value in series [5] (rat, oral gavage daily over 3 days) is reported as “efficacious”. Moreover, in series [6], the “QT prolongation (% above vehicle)” value is on record as −4 % above vehicle. In series [6] (rat), the “effect on the QT interval in the rat” value is “did not prolong the QT interval”. Also, the “QTc prolongation (% above vehicle)” value in series [7] was 1 % above vehicle. Further, the “effect on the QTc interval in the anesthetized guinea pig” value in [7] (guinea pig, cumulative doses up to 30 mg/kg, relative to vehicle controls) is on record as “no statistically significant effects”. Moreover, the “heart rate-corrected QT interval (QTc), FIG. 5” value in series [8] (male beagle dogs, intravenous infusion 15 mg/kg over 30 minutes) is reported as “No significant increase in QTc”. Also, the “effects on cardiac parameters, including QT interval” value in series [8] (telemetered dogs, intravenous infusion up to 15 mg/kg) is on record as “no effects”. For the same compound, the “effects on metabolic stability and steatosis” value in [9] is listed as “No effects”. Further, the “Lung AUC” value in series [10] was 1.42 ug/mL-h. Moreover, the “Lung Cmax” value in [10] was determined as 260 ng/mL. For the same compound, the AUC in series [10] (mouse plasma) was found to be 890 ng·h/mL. The peak level in series [10] (mouse plasma) (Cmax) was 260 ng/mL.
`CC1CC(N(C)C)C(O)C(O[C@@H]2[C@@H](C)C(=O)[C@](C)(F)C(=O)O[C@H](CCF)[C@@]3(C)OC(=O)N[C@@H]3[C@@H](C)C(=O)[C@H](C)C[C@@]2(C)OC/C=C/c2ccc3nccnc3c2)O1` (stereo partly shown) [H]: in series [6], the “QT prolongation (% above vehicle)” value was found to be 15 % above vehicle. The “QTc prolongation (% above vehicle)” value in series [7] came to 4 % above vehicle. In addition, in series [10], the “Lung AUC” value came to 11.0 ug/mL-h and the “Lung Cmax” value turned out to be 3000 ng/mL. Moreover, in series [10] (mouse plasma), the “Plasma AUC” value stood at 2.1 ug/mL-h and the “Plasma Cmax” value turned out to be 670 ng/mL. Moreover, in series [11], the “toxicity, severe clinical effects upon intravenous dosing” value is recorded as “extremely toxic”.

What is called AUC is the area under the concentration-time curve, a measure of exposure. In general, Cmax refers to the maximum level reached in the sampled fluid or tissue.
